Here are results for three compounds from patent publication US12516010B2, “Crystal form of reduced coenzyme Q10 and preparation method therefor” ([…] BIOTECHNOLOGY (HAINAN) CO., LTD, priority 2023, dated 2026).

The nature of data set [1]: stability test: storage in a vacuum bag at 25° C. in the dark, HPLC analysis. It is filed as physicochemical. As for the experimental part:
The crystal of reduced coenzyme Q10 obtained in Example 1 and the crystal obtained in Comparative Example 1 were each placed in a vacuum bag, and stored at 25° C. in the dark. The weight ratio of reduced coenzyme Q10 to oxidized coenzyme Q10 was calculated by the HPLC analysis, and the results are shown in Table 1.
Conditions for HPLC Analysis:
• Chromatographic column: (Agilent) ZORBAX Extend C18 4.6×150 mm, 5 um • Mobile phase: mobile phase A: acetonitrile, mobile phase B: isopropanol, mobile phase C: methanol • Detection wavelength: 290 nm • Flow rate: 1.5 mL/min • Column temperature: 35° C. • Injection concentration: 1 mg/mL • Injection volume: 20 μL

Data set [2] can be described thus: solubility in purified water. It counts as physicochemical. The settings on record: 25° C.

Regarding `COc1c(O)c(C)c(C/C=C(\C)CC/C=C(\C)CC/C=C(\C)CC/C=C(\C)CC/C=C(\C)CC/C=C(\C)CC/C=C(\C)CC/C=C(\C)CC/C=C(\C)CCC=C(C)C)c(O)c1OC` [Comparative Example 1, reduced coenzyme Q10], the “weight ratio of reduced coenzyme Q10 to oxidized coenzyme Q10: oxidized coenzyme Q10 part” value is on record as 0.65 in data set [1] (day 0, vacuum bag); 1.63 in data set [1] (day 15, vacuum bag); 5.47 in data set [1] (day 30, vacuum bag); 8.8 in data set [1] (day 180, vacuum bag); 17.0 in data set [1] (day 360, vacuum bag). Also, the “weight ratio of reduced coenzyme Q10 to oxidized coenzyme Q10: reduced coenzyme Q10 part” value in data set [1] (day 0, vacuum bag) came out at 98.20; in data set [1] (day 15, vacuum bag) it was 97.10; in data set [1] (day 30, vacuum bag) it was 93.40; in data set [1] (day 180, vacuum bag), 89.60; in data set [1] (day 360, vacuum bag) it was 82.0.

For the compound `COc1c(O)c(C)c(C/C=C(\C)CC/C=C(\C)CC/C=C(\C)CC/C=C(\C)CC/C=C(\C)CC/C=C(\C)CC/C=C(\C)CC/C=C(\C)CC/C=C(\C)CCC=C(C)C)c(O)c1OC` [Example 1, reduced coenzyme Q10], the “solubility in purified water” value in data set [2] is on record as 0.5 % by weight. Moreover, the “weight ratio of reduced coenzyme Q10 to oxidized coenzyme Q10: oxidized coenzyme Q10 part” value worked out at 0.40 in data set [1] (day 0, vacuum bag); 0.50 in data set [1] (day 15, vacuum bag); 0.80 in data set [1] (day 30, vacuum bag); 1.10 in data set [1] (day 180, vacuum bag); 1.94 in data set [1] (day 360, vacuum bag). Further, the “weight ratio of reduced coenzyme Q10 to oxidized coenzyme Q10: reduced coenzyme Q10 part” value in data set [1] (day 0, vacuum bag) came out at 99.18; in data set [1] (day 15, vacuum bag), 99.00; in data set [1] (day 30, vacuum bag) it was 98.01; in data set [1] (day 180, vacuum bag) it was 97.90; in data set [1] (day 360, vacuum bag) it was 97.33.

In the case of `COc1c(O)c(C)c(C/C=C(\C)CC/C=C(\C)CC/C=C(\C)CC/C=C(\C)CC/C=C(\C)CC/C=C(\C)CC/C=C(\C)CC/C=C(\C)CC/C=C(\C)CCC=C(C)C)c(O)c1OC` [Example 2, reduced coenzyme Q10], the “solubility in purified water” value in data set [2] is recorded as 0.5 % by weight.
